Target: T1, 5-lipoxygenase (Homo sapiens, UniProt P09917)
T1 construct: the 5-LO activity in human whole blood; from tissue; host or cells: heparinized human whole blood
T1 sequence (P09917 1-674): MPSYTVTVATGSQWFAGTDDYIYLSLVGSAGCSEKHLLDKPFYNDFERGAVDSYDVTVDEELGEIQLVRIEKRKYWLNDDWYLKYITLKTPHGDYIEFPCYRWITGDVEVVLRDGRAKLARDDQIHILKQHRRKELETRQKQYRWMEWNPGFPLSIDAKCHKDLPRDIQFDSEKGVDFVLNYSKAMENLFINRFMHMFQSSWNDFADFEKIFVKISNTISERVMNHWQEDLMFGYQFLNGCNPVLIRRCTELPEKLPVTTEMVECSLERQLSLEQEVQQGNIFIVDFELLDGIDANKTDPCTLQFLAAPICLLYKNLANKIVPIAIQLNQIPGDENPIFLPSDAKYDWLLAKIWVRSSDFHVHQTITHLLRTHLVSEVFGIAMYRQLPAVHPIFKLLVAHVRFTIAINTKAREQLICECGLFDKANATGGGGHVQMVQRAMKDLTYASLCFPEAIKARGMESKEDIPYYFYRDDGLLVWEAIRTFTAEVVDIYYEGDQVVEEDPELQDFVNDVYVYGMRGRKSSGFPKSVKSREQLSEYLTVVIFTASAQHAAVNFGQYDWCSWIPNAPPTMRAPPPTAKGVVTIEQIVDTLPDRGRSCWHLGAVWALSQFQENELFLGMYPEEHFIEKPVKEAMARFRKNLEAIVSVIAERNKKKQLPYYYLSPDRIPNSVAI
Test: 5-lipoxygenase inhibition in human blood (LTB4 formation)
Assay type: cell-based
Conditions: 0.5 h; 10^-5 mole/liter; human whole blood, 37° C.; read-out: In vitro % inhibitory activity on LTB4 formation in human blood stimulated by calcimycin
Method: 4c. In vitro determination of 5-lipoxygenase inhibition in human blood.
The inhibitory activity of the test substances on the 5-LO activity in human whole blood taking place after stimulation by calcimycin is investigated according to the method described by P. Gresele et al. (Biochem. Biophys. Commun. 137 (1986), 334).
For carrying out the test, human blood is collected in sterile 50 ml test tubes which contain 10 units of heparin/ml of blood and incubated for 5-10 minutes at 37° C. Amounts of test substance, dissolved in 10 μl of dimethylformamide, are added to 2 ml samples of this blood such that a final concentration of test substance of 10 μmol/l is achieved in the samples. Only 10 μl of the solvent were added to control samples. The samples were then incubated for 10 minutes at 37° C. In order to stimulate LTB4 synthesis, an amount of calcimycin, dissolved in 200 μl of plasma, was added to the samples such that a calcimycin concentration of 60 μmol/l was achieved, and the samples were incubated for a further 30 minutes at 37° C. The reaction was then terminated by addition of 200 μl of an ethylene glycol tetraacetate solution (corresponding to an ethylene glycol acetate concentration in the sample of 100 mmol/l). The samples are kept in an ice-bath for 10 minutes and then centrifuged (5 minutes at 1000×g). The supernantant liquids, which contain the LTB4 formed during the reaction time, are each separated and, for precipitation of the proteins contained therein, mixed with 3 ml of acetone and kept for 45 minutes at 4° C. Then the samples are centrifuged again (5 minutes at 1500×g), the supernatant liquids are separated, and the content of LTB4 therein is determined in a known manner by means of an enzyme immunoassay (=EIA). From the measured LTB4 values, the inhibitory activity of the test substances in human whole blood was calculated in % inhibition of LTB4 synthesis in comparison to the control samples containing no test substance.

| SMILES | inhibition at 10 µM [%] |
| --- | --- |
| Cc1ccnc(N2CCN(CCC3Cn4c(-c5ccc(O)cc5)c(C)c5c(O)ccc(c54)O3)CC2)c1 (stereo not shown) [Example 4, 2,3-Dihydro-7-hydroxy-5-(4-hydroxyphenyl)-6-methyl-2-[2-(4-(4-methylpyridin-2-yl)piperazin-1-yl)ethyl]pyrrolo[1,2,3-de]-1,4-benzoxazine] | 86 |
| Cc1ccnc(N2CCN(C(=O)CCC3Cn4c(-c5ccc(O)cc5)c(C)c5c(O)ccc(c54)O3)CC2)c1 (stereo not shown) [Example 69] | 95 |
| Cc1cc(-c2c(C)c3c(OCc4ccccc4)ccc4c3n2CC(CCC(=O)N2CCN(c3ccccn3)CC2)O4)cc(C)c1O (stereo not shown) [Example 75] | 96 |

The remaining lines, values ahead:

| inhibition at 10 µM [%] | SMILES |
| --- | --- |
| 100 | Cc1ccnc(N2CCN(C(=O)CCC3Cn4c(-c5cc(C)c(O)c(C)c5)c(C)c5c(O)ccc(c54)O3)CC2)c1 (stereo not shown) [Example 67] |
| 100 | Cc1cc(-c2c(C)c3c(O)ccc4c3n2CC(CCC(=O)N2CCN(c3ccccn3)CC2)O4)cc(C)c1O (stereo not shown) [Example 71] |
| 95 | COc1cc(-c2c(C)c3c(O)ccc4c3n2CC(CCC(=O)N2CCN(c3ccccn3)CC2)O4)cc(C)c1O (stereo not shown) [Example 72] |
| 100 | Cc1ccnc(N2CCN(CCCC3Cn4c(-c5cc(C)c(O)c(C)c5)c(C)c5c(O)ccc(c54)O3)CC2)c1 (stereo not shown) [Example 73] |
| 100 | Cc1cccnc1N1CCN(CCCC2Cn3c(-c4cc(C)c(O)c(C)c4)c(C)c4c(O)ccc(c43)O2)CC1 (stereo not shown) [Example 74] |

Test system: cutaneous histamine induced anaphylactoid reactions
Test: inhibition of the anaphylactoid cutaneous reaction induced by histamine
Assay type: in vivo, Sprague-Dawley rats
Conditions: Rattus norvegicus, po, 0.5 h; 2 × 10^-5 mole/kg p.o., one hour before histamine; assessed 30 minutes after provocation; read-out: Inhibitory action against cutaneous histamine induced anaphylactoid reactions in rats, % inhibition
Method: 1. Determination of the inhibition of the anaphylactoid cutaneous reaction induced by histamine.
The inhibition of the anaphylactoid cutaneous reaction induced by histamine was determined in Sprague-Dawley rats having body weights of 150-180 g.
In order to determine the histamine-induced anaphylactoid skin reaction, 50 μl of a physiological saline solution containing 0.8 mg/ml of histamine were injected into the animals intradermally on one flank. Immediately afterward, a solution of 26.4 mg/kg of a blue dye (Evan's Blue) was administered i.v. to the animals.
The test substances were dissolved in distilled water which contains 1% by volume of dimethylformamide and 1% by volume of Tween®20 (=polyoxyethylene(20) sorbitan monolaurate). One hour before the histamine injection, each animal received 2×10^-5 mol/kg of test substance, in each case administered orally in 0.5 ml of solution. A control group received only the solvent for comparison.
The histamine-induced anaphylactoid reactions which manifested themselves by edema formation, swelling and exudation of blue dye are assessed 30 minutes after provocation by the histamine injection. This is carried out by visual determination of the extent of the exudation of blue dye at the sites of edema formation. With the aid of comparison scales, the percentage inhibition of the anaphylactoid reactions produced by the test substances is determined in comparison with the reactions of the control animals not treated with test substance.
The results obtained with compounds of the formula I by the above test method are reproduced in the following table A. The example numbers given as identifiers for the compounds of formula I refer to the subsequent preparative examples.

| SMILES | inhibition in vivo at 20 µmol/kg [%] |
| --- | --- |
| Cc1ccnc(N2CCN(C(=O)CCC3Cn4c(-c5ccc(O)cc5)c(C)c5cccc(c54)O3)CC2)c1 (stereo not shown) [Example 15] | 32 |
| Cc1ccnc(N2CCN(C(=O)CCC3Cn4c(-c5cc(C)c(O)c(C)c5)c(C)c5cccc(c54)O3)CC2)c1 (stereo not shown) [Example 25] | 30 |
| Cc1cc(-c2c(C)c3c(F)ccc4c3n2CC(CCN2CCN(c3ccccn3)CC2)O4)cc(C)c1O (stereo not shown) [Example 27] | 55 |
| Cc1ccnc(N2CCN(CCCC3Cn4c(-c5cc(C)c(O)c(C)c5)c(C)c5c(F)ccc(c54)O3)CC2)c1 (stereo not shown) [Example 29] | 46 |
| COc1cc(-c2c(C)c3cccc4c3n2CC(CCC(=O)N2CCN(c3ccc(C)cn3)CC2)O4)ccc1O (stereo not shown) [Example 39] | 32 |
| Cc1ccnc(N2CCN(CCC3Cn4c(-c5cc(C)c(O)c(C)c5)c(C)c5cc(F)cc(c54)O3)CC2)c1 (stereo not shown) [Example 42] | 36 |
| COc1cc2c3c(c1)c(C)c(-c1cc(C)c(O)c(C)c1)n3CC(CCN1CCN(c3cc(C)ccn3)CC1)O2 (stereo not shown) [Example 43] | 32 |
| Cc1ccnc(N2CCN(CCC3Cn4c(-c5cc(C)c(O)c(C)c5)c(C)c5cc(O)cc(c54)O3)CC2)c1 (stereo not shown) [Example 44] | 37 |

Reference: patent US5474988A, “5-phenylpyrrolo-1,4-benzoxazine and 5-phenylpyrrolo-1,4-benzothiazine compounds, process and intermediates for their production and pharmaceutical compositions containing them” (Kali-Chemie Pharma GmbH, priority 1993, dated 1995)
